Measured values: ChEMBL document CHEMBL1155303, “Multiple strategies for the preparation of a sulfur-35 labeled NPC1L1 radioligand” (Bioorg Med Chem Lett, 2009)

Legend:
[1] = molecular target: T1, NPC1-like intracellular cholesterol transporter 1 (Homo sapiens, UniProt Q9UHC9); test: (§1) Displacement of [35S](2S,3S,4S,5R,6S)-6-(4-((2S,3R)-3-((S)-3-(4-fluorophenyl)-3-hydroxypropyl)-1-(4-(3-(methylsulfonamido)prop-1-ynyl)phenyl)-4-oxoazetidin-2-yl)phenoxy)-3,4,5-trihydroxytetrahydro-2H-pyran-2-carboxylic acid from recombinant human NPC1L1 expressed in HEK cells by single tube filtration assay; format: cell-based, HEK293
T1 sequence (Q9UHC9 whole entry): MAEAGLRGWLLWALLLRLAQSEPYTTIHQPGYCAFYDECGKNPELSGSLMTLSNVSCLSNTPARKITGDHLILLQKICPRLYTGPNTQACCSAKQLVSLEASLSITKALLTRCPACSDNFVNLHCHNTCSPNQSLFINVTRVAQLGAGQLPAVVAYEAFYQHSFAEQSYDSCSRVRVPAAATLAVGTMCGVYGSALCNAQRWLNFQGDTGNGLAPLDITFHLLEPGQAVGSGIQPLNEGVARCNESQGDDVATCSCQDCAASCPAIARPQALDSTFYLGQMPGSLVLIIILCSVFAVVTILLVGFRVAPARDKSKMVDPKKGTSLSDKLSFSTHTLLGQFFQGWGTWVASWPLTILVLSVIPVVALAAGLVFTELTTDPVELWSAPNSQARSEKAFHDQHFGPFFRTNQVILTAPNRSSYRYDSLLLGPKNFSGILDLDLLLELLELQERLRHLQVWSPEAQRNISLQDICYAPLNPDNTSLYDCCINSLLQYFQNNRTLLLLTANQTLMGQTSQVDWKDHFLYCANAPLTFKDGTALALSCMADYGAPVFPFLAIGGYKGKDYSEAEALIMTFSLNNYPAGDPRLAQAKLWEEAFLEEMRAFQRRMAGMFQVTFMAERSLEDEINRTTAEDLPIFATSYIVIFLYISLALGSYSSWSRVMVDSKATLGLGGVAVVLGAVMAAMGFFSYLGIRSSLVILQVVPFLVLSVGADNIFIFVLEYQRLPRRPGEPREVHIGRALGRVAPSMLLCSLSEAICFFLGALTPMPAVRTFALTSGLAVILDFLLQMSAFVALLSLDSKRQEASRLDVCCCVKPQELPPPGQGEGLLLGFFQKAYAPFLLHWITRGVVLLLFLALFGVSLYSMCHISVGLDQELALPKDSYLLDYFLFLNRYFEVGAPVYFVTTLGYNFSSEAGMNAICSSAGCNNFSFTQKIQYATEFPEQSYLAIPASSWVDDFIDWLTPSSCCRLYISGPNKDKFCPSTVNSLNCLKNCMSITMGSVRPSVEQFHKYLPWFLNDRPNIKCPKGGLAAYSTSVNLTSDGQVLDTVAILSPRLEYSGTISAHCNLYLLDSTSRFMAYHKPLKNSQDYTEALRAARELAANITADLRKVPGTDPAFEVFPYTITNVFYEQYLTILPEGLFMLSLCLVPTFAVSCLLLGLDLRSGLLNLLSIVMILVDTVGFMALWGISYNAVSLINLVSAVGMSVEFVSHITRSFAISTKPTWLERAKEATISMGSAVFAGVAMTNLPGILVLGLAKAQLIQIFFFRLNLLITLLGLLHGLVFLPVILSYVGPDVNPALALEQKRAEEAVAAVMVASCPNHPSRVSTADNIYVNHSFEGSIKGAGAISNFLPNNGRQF

[2] = molecular target: T1, NPC1-like intracellular cholesterol transporter 1; test: as §1, with “from” for “from recombinant”, “human intestinal brush border membrane” for “human”, “NPC1L1” for “NPC1L1 expressed in HEK cells”
[3] = molecular target: T2, NPC1-like intracellular cholesterol transporter 1 (Rattus norvegicus, UniProt Q6T3U3); test: as §1, with “rat” for “human”; format: cell-based, HEK293
T2 sequence (Q6T3U3 21-1331 limits assumed): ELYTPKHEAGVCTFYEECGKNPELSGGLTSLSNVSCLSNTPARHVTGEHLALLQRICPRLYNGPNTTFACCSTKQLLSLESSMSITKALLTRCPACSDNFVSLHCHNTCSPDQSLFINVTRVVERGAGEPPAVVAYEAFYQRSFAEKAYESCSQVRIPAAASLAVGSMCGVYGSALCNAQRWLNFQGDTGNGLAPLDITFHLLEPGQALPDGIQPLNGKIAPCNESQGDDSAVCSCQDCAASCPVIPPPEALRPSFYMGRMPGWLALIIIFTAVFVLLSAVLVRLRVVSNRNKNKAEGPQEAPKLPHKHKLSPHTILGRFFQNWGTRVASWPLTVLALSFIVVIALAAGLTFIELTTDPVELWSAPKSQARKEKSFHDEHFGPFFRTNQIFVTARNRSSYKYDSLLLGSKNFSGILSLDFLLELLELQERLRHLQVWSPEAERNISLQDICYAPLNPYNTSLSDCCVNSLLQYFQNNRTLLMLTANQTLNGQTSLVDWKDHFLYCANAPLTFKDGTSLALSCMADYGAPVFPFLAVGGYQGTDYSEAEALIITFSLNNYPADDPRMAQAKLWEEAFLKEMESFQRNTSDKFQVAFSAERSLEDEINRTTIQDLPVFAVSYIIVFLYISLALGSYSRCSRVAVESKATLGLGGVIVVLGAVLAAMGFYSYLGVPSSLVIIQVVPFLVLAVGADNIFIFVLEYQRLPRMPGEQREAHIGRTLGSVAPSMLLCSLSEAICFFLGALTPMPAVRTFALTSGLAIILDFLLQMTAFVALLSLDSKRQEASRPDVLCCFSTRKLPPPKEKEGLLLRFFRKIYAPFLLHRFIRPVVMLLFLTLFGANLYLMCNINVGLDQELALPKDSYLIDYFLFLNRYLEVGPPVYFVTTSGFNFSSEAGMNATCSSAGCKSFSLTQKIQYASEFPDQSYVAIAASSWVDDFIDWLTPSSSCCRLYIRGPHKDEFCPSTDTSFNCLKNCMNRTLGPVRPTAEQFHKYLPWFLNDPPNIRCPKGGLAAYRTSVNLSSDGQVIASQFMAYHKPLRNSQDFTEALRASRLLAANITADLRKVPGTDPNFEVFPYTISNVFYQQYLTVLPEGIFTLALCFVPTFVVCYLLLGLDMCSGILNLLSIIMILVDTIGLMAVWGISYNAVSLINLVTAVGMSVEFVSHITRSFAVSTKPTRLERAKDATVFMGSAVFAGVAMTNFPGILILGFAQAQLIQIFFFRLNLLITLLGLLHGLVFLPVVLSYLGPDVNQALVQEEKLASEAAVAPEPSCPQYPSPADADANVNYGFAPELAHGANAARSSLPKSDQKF

[4] = molecular target: T2, NPC1-like intracellular cholesterol transporter 1; test: as §1, with “rat intestinal brush border membrane” for “recombinant human”, “NPC1L1” for “NPC1L1 expressed in HEK cells”
[5] = molecular target: NPC1-like intracellular cholesterol transporter 1 (Mus musculus, UniProt Q6T3U4); test: as §1, with “mouse” for “human”; format: cell-based, HEK293
Chain of NPC1-like intracellular cholesterol transporter 1 (Mus musculus, UniProt Q6T3U4) (Q6T3U4 21-1333 limits assumed): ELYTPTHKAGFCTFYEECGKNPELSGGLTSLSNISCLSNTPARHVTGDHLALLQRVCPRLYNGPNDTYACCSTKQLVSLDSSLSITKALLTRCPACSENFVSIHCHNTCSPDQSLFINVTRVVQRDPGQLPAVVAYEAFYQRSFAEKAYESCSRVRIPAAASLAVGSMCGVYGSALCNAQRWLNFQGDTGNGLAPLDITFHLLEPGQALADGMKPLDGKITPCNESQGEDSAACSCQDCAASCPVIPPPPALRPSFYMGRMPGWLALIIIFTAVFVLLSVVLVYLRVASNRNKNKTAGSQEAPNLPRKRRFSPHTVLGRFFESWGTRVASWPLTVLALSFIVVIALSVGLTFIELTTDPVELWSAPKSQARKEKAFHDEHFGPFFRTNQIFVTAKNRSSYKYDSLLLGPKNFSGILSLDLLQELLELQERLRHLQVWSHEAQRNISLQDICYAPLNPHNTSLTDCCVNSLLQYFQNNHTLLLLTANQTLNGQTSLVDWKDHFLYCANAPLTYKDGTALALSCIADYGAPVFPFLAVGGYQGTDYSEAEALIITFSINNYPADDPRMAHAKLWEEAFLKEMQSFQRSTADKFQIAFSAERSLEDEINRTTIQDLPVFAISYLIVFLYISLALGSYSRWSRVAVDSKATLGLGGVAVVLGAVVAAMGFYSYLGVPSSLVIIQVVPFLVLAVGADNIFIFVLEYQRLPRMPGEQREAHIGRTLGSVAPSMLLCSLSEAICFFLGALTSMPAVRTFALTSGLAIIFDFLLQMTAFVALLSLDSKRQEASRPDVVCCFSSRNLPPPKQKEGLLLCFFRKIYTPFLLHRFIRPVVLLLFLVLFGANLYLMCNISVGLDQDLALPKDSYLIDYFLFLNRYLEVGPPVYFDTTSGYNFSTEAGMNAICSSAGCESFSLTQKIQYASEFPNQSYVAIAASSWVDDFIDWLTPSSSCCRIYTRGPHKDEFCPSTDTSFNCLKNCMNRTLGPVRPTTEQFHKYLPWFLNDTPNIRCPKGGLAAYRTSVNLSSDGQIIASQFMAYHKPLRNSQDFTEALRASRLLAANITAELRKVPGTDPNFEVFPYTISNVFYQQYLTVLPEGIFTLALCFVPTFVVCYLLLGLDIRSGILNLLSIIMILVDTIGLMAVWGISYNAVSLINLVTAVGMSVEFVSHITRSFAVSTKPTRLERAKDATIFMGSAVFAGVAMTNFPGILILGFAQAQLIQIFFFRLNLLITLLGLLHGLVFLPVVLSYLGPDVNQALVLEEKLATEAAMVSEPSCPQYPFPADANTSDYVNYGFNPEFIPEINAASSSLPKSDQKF

IC50 [1]: 4 nM | IC50 [2]: 4 nM | IC50 [3]: 4 nM | IC50 [4]: 4 nM | IC50 [5]: 44 nM
SMILES: C[35S](=O)(=O)NCC#Cc1ccc(N2C(=O)[C@H](CC[C@H](O)c3ccc(F)cc3)[C@H]2c2ccc(O[C@@H]3O[C@H](C(=O)O)[C@@H](O)[C@H](O)[C@H]3O)cc2)cc1
